Results on 9 compounds are retold here after patent US12122761B2, “2-azaspiro[3.4]octane derivatives as M4 agonists” (NOVARTIS AG, priority 2019, dated 2024).

The target of experiment [1] is T1, human cloned CHRM4 receptor (M4_CHO cells) (Homo sapiens, UniProt P08173).
T1 construct: expressed in transfected cells; host or cells: CHO-K1
T1 sequence (P08173 1-479): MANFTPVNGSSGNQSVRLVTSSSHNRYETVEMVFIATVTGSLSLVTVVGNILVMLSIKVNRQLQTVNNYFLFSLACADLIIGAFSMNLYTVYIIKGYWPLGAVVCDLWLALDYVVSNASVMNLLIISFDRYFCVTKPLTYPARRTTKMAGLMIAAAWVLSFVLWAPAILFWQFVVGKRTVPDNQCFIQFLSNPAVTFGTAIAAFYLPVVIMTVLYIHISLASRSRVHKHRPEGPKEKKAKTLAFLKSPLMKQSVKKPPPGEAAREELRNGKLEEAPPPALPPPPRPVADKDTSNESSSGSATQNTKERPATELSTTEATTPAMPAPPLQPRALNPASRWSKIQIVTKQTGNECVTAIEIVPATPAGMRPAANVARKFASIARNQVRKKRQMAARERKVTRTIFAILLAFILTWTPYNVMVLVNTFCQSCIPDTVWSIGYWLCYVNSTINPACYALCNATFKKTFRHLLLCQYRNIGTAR
Description: CHRM4 Ca++ Flux Assay (agonist mode, FDSS 7000EX). It counts as cell-based. The note with it: for M4 FDSS PA: Percent Activity; for EC50: geometric mean if tested more than once, read-out: M4 FDSS EC50. The protocol:
The above examples were characterized by measuring the intracellular mobilization of Ca++ ions caused by signaling events mediated by the receptor. The Intra-cellular Calcium flux levels were captured by the highly sensitive Ca++ indicator, Calcium Assay Kit (BD Biosciences, Catalog Number 640178). The fluorescent activity from all receptors were monitored by the fluorescent imager, FDSS 7000EX (Hamamatsu) over a span of 3 minutes.
CHO-K1 cells stably expressing the human cloned CHRM4 receptor (M4_CHO cells) were grown and maintained in a monolayer culture with F12/HAM (Life Technologies) supplemented with 10% Fetal Bovine Serum, 1× Pen-Strep, and 0.4 mg/mL Geneticin in a humidified atmosphere (5% CO2) at 37° C. The cultures were grown to 80-90% confluency in T150 flasks (Corning) and washed with 1×DPBS then lifted with 0.05% Trypsin (Life Technologies). The cells were harvested in growth media then spun (1K rpm, 3 minutes) and cryopreserved using Recovery Cell Culture Freezing Media (Gibco Technologies). Cells were stored in liquid nitrogen and thawed a day before the assay.
Prior to the day of the assay, stable M4_CHO cells were thawed and plated on 384 well black walled clear bottom TC treated plates (Greiner Cat #781091) at 12K cells/well using F12/HAM Media supplemented with 10% FBS (Life Technologies) and kept overnight in a humidified atmosphere (5% CO2) at 37° C. The next day, cells were loaded with […] Ca^++ dye (BD Biosciences) using Loading Buffer (HBSS +Ca/+Mg, 20 mM HEPES, 2.5 mM Probenecid) and placed back in cell incubator for a minimum of 1 hour. After incubation, the dye was replaced with 45 μL Assay Buffer (HBSS −Ca/−Mg, 20 mM HEPES, 2.5 mM Probenecid) supplemented with 20 μM ATP (Sigma Aldrich) and kept at room temperature in the dark for 60 minutes before running on a cell imager. The FDSS 7000EX (Hamamatsu) was used to capture Ca^++ traces for a span of 3 minutes from cells treated with 11 point dose of compound in triplicate in order to generate dose response curves in agonist mode. All compounds were serially diluted in DMSO then prepared in Assay Buffer for Ca^++ flux studies. The dose response curves were generated from the average of triplicate wells obtained from each data point and used a non-linear regression of four parameter dose response algorithm. The Percent Activity (PA) was measured to EC100 of Carbachol.

Experiment [2] addresses T2, human cloned CHRM5 receptor (M5_CHO) (Homo sapiens, UniProt P08912).
T2 construct: expressed in transfected cells; host or cells: CHO (M5_CHO)
T2 sequence (P08912 1-532): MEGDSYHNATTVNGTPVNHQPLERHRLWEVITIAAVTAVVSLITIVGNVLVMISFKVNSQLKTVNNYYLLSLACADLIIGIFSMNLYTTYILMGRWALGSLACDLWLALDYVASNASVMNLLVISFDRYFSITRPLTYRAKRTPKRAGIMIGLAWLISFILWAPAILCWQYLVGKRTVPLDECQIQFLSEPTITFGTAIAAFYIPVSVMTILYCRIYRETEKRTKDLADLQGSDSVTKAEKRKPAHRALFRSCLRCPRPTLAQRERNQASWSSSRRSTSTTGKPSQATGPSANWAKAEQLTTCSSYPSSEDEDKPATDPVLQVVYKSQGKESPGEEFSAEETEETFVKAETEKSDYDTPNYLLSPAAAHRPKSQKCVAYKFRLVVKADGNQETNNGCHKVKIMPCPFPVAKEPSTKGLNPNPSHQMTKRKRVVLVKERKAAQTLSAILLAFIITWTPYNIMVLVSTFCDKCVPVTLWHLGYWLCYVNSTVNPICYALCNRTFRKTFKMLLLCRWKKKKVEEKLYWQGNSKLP
Briefly: CHRM5 Ca++ Flux Assay (agonist mode, FDSS 7000EX). It counts as cell-based. As to conditions: for M5 FDSS PA: Percent Activity measured to EC100 of Carbachol; for EC50: agonist mode, geometric mean if tested more than once, read-out: M5 FDSS EC50. The gist of the method: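 Stable CHO-K1 lines (human M3 or M5), calcium-dye loaded ≥1 h, assayed in Ca/Mg-free HBSS + 20 mM HEPES + 2.5 mM probenecid. 11-pt dose response, triplicate, 3 min fluorescence read. 4-parameter regression; % activity vs carbachol EC100.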

Read-outs that look alike come from different tables or passages of the source. Some results are limits rather than exact numbers.

The EC50 is the concentration that produces a half-maximal response. `Cc1nnc(COc2ccccc2C2CCN([C@@H]3CCC4(C3)CN(C(=O)C3(F)CC3)C4)CC2)o1` (single isomer, unassigned) [Example 7W, (R)-(1-fluorocyclopropyl)(6-(4-(2-((5-methyl-1,3,4-oxadiazol-2-yl)methoxy)phenyl)piperidin-1-yl)-2-azaspiro[3.4]octan-2-yl)methanone or (S)-(1-fluorocyclopropyl)(6-(4-(2-((5-methyl-1,3,4-oxadiazol-2-yl)methoxy)phenyl)piperidin-1-yl)-2-azaspiro[3.4]octan-2-yl)methanone]: in experiment [1], the “M4 FDSS PA” value stood at 67% and the concentration giving a half-maximal response (EC50) is less than 0.4 nM. Also, in experiment [2], the “M5 FDSS PA” value is 8% and the EC50 was 0.077 µM.
Consider `Cc1nc(COc2ccccc2C2CCN([C@@H]3CCC4(C3)CN(C(=O)C3(F)CC3)C4)CC2)no1` (single isomer, unassigned) [Example 7X, (R)-(1-fluorocyclopropyl)(6-(4-(2-((5-methyl-1,2,4-oxadiazol-3-yl)methoxy)phenyl)piperidin-1-yl)-2-azaspiro[3.4]octan-2-yl)methanone or (S)-(1-fluorocyclopropyl)(6-(4-(2-((5-methyl-1,2,4-oxadiazol-3-yl)methoxy)phenyl)piperidin-1-yl)-2-azaspiro[3.4]octan-2-yl)methanone], for which, in experiment [1], the “M4 FDSS PA” value was 66% and the half-maximal effective concentration (EC50) is less than 0.4 nM. For the same compound, in experiment [2], the “M5 FDSS PA” value is on record as 9% and the 50% effective concentration (EC50) was found to be 0.071 µM.
Regarding `Cc1nnc(COc2ccccc2C2CCN([C@@H]3CCC4(C3)CN(C(=O)C3(F)CC3)C4)CC2)o1` (single isomer, unassigned) [Example 7Y, (R)-(1-fluorocyclopropyl)(6-(4-(2-((5-methyl-1,3,4-oxadiazol-2-yl)methoxy)phenyl)piperidin-1-yl)-2-azaspiro[3.4]octan-2-yl)methanone or (S)-(1-fluorocyclopropyl)(6-(4-(2-((5-methyl-1,3,4-oxadiazol-2-yl)methoxy)phenyl)piperidin-1-yl)-2-azaspiro[3.4]octan-2-yl)methanone], in experiment [1], the “M4 FDSS PA” value is 49% and the EC50 turned out to be 22 nM. Also, in experiment [2], the “M5 FDSS PA” value is listed as 0% and the EC50 is greater than 25 µM.
For `Cc1nc(COc2ccccc2C2CCN([C@@H]3CCC4(C3)CN(C(=O)C3(F)CC3)C4)CC2)no1` (single isomer, unassigned) [Example 7Z, (R)-(1-fluorocyclopropyl)(6-(4-(2-((5-methyl-1,2,4-oxadiazol-3-yl)methoxy)phenyl)piperidin-1-yl)-2-azaspiro[3.4]octan-2-yl)methanone or (S)-(1-fluorocyclopropyl)(6-(4-(2-((5-methyl-1,2,4-oxadiazol-3-yl)methoxy)phenyl)piperidin-1-yl)-2-azaspiro[3.4]octan-2-yl)methanone], in experiment [1], the “M4 FDSS PA” value came out at 50% and the concentration for a half-maximal effect (EC50) was 9 nM. In experiment [2], the “M5 FDSS PA” value turned out to be 0% and the half-maximal effective concentration (EC50) was greater than 25 µM.
Taken in the same sequence, the figures for `COc1ccc(Cl)cc1C1CCN([C@H]2CCC3(C2)CN(C(=O)C2(F)CC2)C3)CC1` (single isomer, unassigned) [Example 8A, (S)-(6-(4-(5-chloro-2-methoxyphenyl)piperidin-1-yl)-2-azaspiro[3.4]octan-2-yl)(1-fluorocyclopropyl)methanone or (R)-(6-(4-(5-chloro-2-methoxyphenyl)piperidin-1-yl)-2-azaspiro[3.4]octan-2-yl)(1-fluorocyclopropyl)methanone] were 43%, 36 nM, 0% and greater than 25 µM.
As to `COc1ccc(Cl)cc1C1CCN([C@H]2CCC3(C2)CN(C(=O)C2(F)CC2)C3)CC1` (single isomer, unassigned) [Example 8B, (S)-(6-(4-(5-chloro-2-methoxyphenyl)piperidin-1-yl)-2-azaspiro[3.4]octan-2-yl)(1-fluorocyclopropyl)methanone or (R)-(6-(4-(5-chloro-2-methoxyphenyl)piperidin-1-yl)-2-azaspiro[3.4]octan-2-yl)(1-fluorocyclopropyl)methanone], in experiment [1], the “M4 FDSS PA” value was determined as 64% and the EC50 amounted to 1 nM. Also, in experiment [2], the “M5 FDSS PA” value is 0% and the EC50 was greater than 25 µM.
Consider `O=C(C1COC1)N1CC2(CC[C@H](N3CCC(c4ccccc4OC(F)F)CC3)C2)C1.O=C(O)CC(O)(CC(=O)O)C(=O)O` (single isomer, unassigned) [Example 8E, (S)-(6-(4-(2-(difluoromethoxy)phenyl)piperidin-1-yl)-2-azaspiro[3.4]octan-2-yl)(oxetan-3-yl)methanone or (R)-(6-(4-(2-(difluoromethoxy)phenyl)piperidin-1-yl)-2-azaspiro[3.4]octan-2-yl)(oxetan-3-yl)methanone citrate salt], for which, in experiment [1] (citrate salt), the “M4 FDSS PA” value amounted to 61% and the half-maximal effective concentration (EC50) amounted to 2 nM. Also, in experiment [2] (citrate salt), the “M5 FDSS PA” value is on record as 1% and the concentration for a half-maximal effect (EC50) worked out at 2.16 µM.
For `O=C(C1COC1)N1CC2(CC[C@H](N3CCC(c4ccccc4OC(F)F)CC3)C2)C1.O=C(O)CC(O)(CC(=O)O)C(=O)O` (single isomer, unassigned) [Example 8F, (S)-(6-(4-(2-(difluoromethoxy)phenyl)piperidin-1-yl)-2-azaspiro[3.4]octan-2-yl)(oxetan-3-yl)methanone or (R)-(6-(4-(2-(difluoromethoxy)phenyl)piperidin-1-yl)-2-azaspiro[3.4]octan-2-yl)(oxetan-3-yl)methanone citrate salt], in that order: 10%, 1110 nM, 0% and greater than 25 µM.
Take `O=C(N1CC2(CC[C@@H](N3CCC(c4ccccc4OC(F)(F)F)CC3)C2)C1)C1(F)CC1` (single isomer, unassigned) [Example 9A, (R)-(1-fluorocyclopropyl)(6-(4-(2-(trifluoromethoxy)phenyl)piperidin-1-yl)-2-azaspiro[3.4]octan-2-yl)methanone or (S)-(1-fluorocyclopropyl)(6-(4-(2-(trifluoromethoxy)phenyl)piperidin-1-yl)-2-azaspiro[3.4]octan-2-yl)methanone]: in experiment [1], the “M4 FDSS PA” value is 36% and the 50% effective concentration (EC50) was determined as 342 nM. In experiment [2], the “M5 FDSS PA” value was 0% and the EC50 is greater than 25 µM.
